This note sets out measurements from the Kinase Knowledgebase extract (Sharma et al. 2016).

Each structure is given as a SMILES string.

In the experiment the target is EGFR (human) (UniProt P00533). The note with it: a431.
Chain of EGFR (human) (P00533 whole entry, looked up): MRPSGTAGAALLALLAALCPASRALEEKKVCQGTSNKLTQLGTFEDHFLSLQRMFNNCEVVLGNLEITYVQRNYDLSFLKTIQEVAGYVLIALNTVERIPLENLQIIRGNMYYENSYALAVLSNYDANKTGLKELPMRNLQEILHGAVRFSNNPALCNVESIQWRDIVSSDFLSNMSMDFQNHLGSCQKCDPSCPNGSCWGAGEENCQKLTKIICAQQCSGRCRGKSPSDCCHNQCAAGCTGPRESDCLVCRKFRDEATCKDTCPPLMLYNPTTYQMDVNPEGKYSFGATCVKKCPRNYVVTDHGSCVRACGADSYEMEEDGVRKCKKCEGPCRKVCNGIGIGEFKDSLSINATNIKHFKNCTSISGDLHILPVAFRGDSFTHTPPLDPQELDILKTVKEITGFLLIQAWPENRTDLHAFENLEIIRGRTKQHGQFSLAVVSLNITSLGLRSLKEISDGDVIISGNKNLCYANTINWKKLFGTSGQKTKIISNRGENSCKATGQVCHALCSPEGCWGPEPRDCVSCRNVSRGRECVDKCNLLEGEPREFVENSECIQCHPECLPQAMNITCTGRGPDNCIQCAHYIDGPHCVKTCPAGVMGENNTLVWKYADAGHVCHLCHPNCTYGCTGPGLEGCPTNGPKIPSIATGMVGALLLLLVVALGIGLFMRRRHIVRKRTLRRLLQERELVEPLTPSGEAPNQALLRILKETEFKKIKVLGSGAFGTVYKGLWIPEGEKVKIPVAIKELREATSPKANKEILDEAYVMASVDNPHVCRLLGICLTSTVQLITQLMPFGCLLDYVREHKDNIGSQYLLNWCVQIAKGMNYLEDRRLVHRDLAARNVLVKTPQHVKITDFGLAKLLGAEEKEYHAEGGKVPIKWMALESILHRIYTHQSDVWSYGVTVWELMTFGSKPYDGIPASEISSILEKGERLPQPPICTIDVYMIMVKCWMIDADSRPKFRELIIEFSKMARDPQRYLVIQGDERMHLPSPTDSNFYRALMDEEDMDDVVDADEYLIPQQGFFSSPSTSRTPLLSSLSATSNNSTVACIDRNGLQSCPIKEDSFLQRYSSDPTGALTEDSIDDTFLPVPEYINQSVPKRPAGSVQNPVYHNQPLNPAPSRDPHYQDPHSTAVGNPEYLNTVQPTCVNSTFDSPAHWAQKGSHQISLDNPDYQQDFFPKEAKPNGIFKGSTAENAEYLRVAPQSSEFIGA
As a reminder, the IC50 is the concentration needed to halve the response being measured. The low end stands for greater potency in that assay, the high end for weaker potency in that assay. As to `Nc1nc(Nc2cccc(Br)c2)c2ccn(Cc3ccc(Cl)c(Cl)c3)c2n1`, the concentration for half-maximal inhibition (IC50) was found to be 19.2 µM. Molecule `Nc1nc(Nc2cccc(Br)c2)c2ccn(Cc3ccc(-c4ccccc4)cc3)c2n1` came in with an IC50 of 13.3 µM. Molecule `Nc1nc(Nc2cccc(Br)c2)c2ccn(Cc3ccc(Cl)cc3)c2n1` gave an IC50 of 16.1 µM.

On to `Nc1nc(Nc2cccc(Br)c2)c2ccn(Cc3ccccc3)c2n1`, for which the IC50 was 50.4 µM. The same measure for `COc1cc(Cn2ccc3c(Nc4cccc(Br)c4)nc(N)nc32)cc(OC)c1OC`: 39 µM; for `Nc1nc(Nc2cccc(Br)c2)c2ccn(Cc3ccc(Cl)cc3Cl)c2n1`: 15.3 µM. Molecule `Nc1nc(Nc2cccc(Br)c2)c2ccn(Cc3ccc4ccccc4c3)c2n1` registered an IC50 of 20.4 µM. `COc1ccc(OC)c(Cn2ccc3c(Nc4cccc(Br)c4)nc(N)nc32)c1` registered an IC50 of 40.6 µM. `Nc1nc(Nc2cccc(Br)c2)c2ccn(Cc3ccccc3Cl)c2n1` showed an IC50 of 88.4 µM.

`Nc1nc(Nc2cccc(Br)c2)c2ccn(Cc3cccc4ccccc34)c2n1` gave an IC50 of 36.3 µM. The same measure for `Cc1ccccc1Cn1ccc2c(Nc3cccc(Br)c3)nc(N)nc21`: 15.7 µM.
